Among the data in PubChem BioAssay AID743394 (Broad Institute, 2014) are activation values, retold here.

Calls of active or inactive are those of the source.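 How the source made its calls: active means 40% activation versus positive control reached by fitted dose-response curve at or below highest valid tested dose; inconclusive means poor fit quality, or flat fit with activation between 30% and 70%; inactive means the rest.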

One test is described as follows: inactive X chromosome reactivation in XiGFP fibroblasts, dose response, imaging, 68-5-11 mouse fibroblasts, GFP, cherry-pick (AID 743394).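 Further: sensitizer 5-aza-dC present in the wells at 0.5 mM final.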 The conditions noted are these: 68-5-11 mouse fibroblast XiGFP reporter, % GFP-positive imaging, 3 d; at 19.5 µM (top of the series).
In the case of `O=C(c1cccc2ccccc12)C1CCCN(Cc2ccon2)C1` (stereo unspecified), the activation was 0.107% (inactive).

Staying with this test, now noted: 68-5-11 mouse fibroblast XiGFP reporter, % GFP-positive imaging, 3 d; at 19.5 µM (top of the series); cells co-treated with 5-aza-dC sensitizer; scaled: neutral wells 0, ellipticine wells 100.
Regarding `COc1ccccc1C#Cc1ccc2c(c1)O[C@H](CN(C)Cc1cncnc1)[C@@H](C)CN([C@H](C)CO)S2(=O)=O`, the activation was 0.045% (inactive).

Regarding `O=C(O)c1ccccc1NS(=O)(=O)c1ccc(N/N=C/c2cccc(O)c2O)c([N+](=O)[O-])c1`, the activation is -0.035% (inactive).

With `COc1ccc2c3c(n(C)c2c1)[C@@H](CO)N(C(=O)NC(C)C)CC31CN(C(C)=O)C1`, the activation was 0.015% (inactive).

Take `CCOc1ccccc1N1C(=O)CC(Sc2nccc(C)n2)C1=O` (stereo unspecified): the activation was -0.095% (inactive).

For `CN(C)C=NC(=O)c1cc(C(=O)c2ccc(Cl)cc2Cl)c[nH]1`, the activation was -0.032% (inactive).

Turning to `Nc1c(-c2ccccc2)c(CN2CCOCC2)nn1-c1ccc(C(=O)O)cc1`, the activation is -0.014% (inactive).

Regarding `Cc1cccc(CS(=O)(=O)Cc2ccc(C(=O)NCc3cccs3)o2)c1`, the activation is 0% (inactive).

With `CCOC(=O)C1=c2/c(=C/c3ccncc3)c(N)c(C(=O)OC)n2C(=O)C(c2ccncc2)S1` (stereo unspecified), the activation was 0.188% (inactive).

As for `C[C@H](NC(=O)C[C@@H]1CC[C@H](NC(=O)Cc2ccccn2)[C@@H](CO)O1)c1ccccc1`, the activation is 0.019% (inactive).

Take `NNC(=O)/C(=C\c1ccc(Br)cc1)NC(=O)c1cccs1`: the activation was -0.053% (inactive).

Turning to `CCOC(=O)N1CCN(Cc2cc(Cl)c3cccnc3c2O)CC1`, the activation is -0.05% (inactive).

As for `COC(=O)c1ccc(CNC(=O)COC(=O)c2cc(Cl)ccc2O)cc1`, the activation was 0.385% (inactive).

As for `CC(=O)Nc1sc(N/N=C/c2ccc(N(C)C)cc2)nc1-c1ccc(C)cc1`, the activation is 0.052% (inactive).

For the compound `Cc1c(/C=N\NC(=O)c2cc3ccccc3o2)c2ccccc2n1C`, the activation is -0.044% (inactive).

On to `Cc1ccc(S(=O)(=O)Nc2ccc3c(c2)C(=O)N([C@H](C)CO)C[C@@H](C)[C@@H](CN(C)Cc2ccc(Cl)c(Cl)c2)OCCCC[C@H](C)O3)cc1`, for which the activation was -0.031% (inactive).

For `Cc1noc(C)c1NC(=O)N[C@H]1CC[C@H](CC(=O)N2CCN(C)CC2)O[C@H]1CO`, the activation was 0.116% (inactive).

With `CN(C)/C=C1\C=C2C(=O)c3ccccc3N2C1=O`, the activation is 4.14% (inactive).

Regarding `CO[C@H]1CN(C)C(=O)c2ccc(NC(=O)C3CCCCC3)cc2OC[C@H](C)NC[C@@H]1C`, the activation is 0.017% (inactive).

Turning to `CC(C)C#Cc1ccc([C@@H]2[C@@H](CO)N3C(=O)CN(C(=O)c4ccc5c(c4)OCO5)C[C@H]23)cc1`, the activation is 0.09% (inactive).

`O=C(Nc1ccccc1)N1C[C@@H]2[C@H](c3ccccc31)[C@H](CO)N2C(=O)c1ccccc1F`: the activation was 0.2% (inactive).

Turning to `COC(=O)c1cnn(-c2ccccc2)c1N`, the activation was 0.12% (inactive).

For `Cn1c(=O)c2[nH]c(-c3ccc(S(=O)(=O)O)cc3)nc2n(C)c1=O`, the activation was 0.001% (inactive).

Regarding `C=CCn1c(SCC(=O)N(CC)C2CCS(=O)(=O)C2)nc2sc3c(c2c1=O)CCC3` (stereo unspecified), the activation is -0.061% (inactive).

Take `Brc1ccc(-c2cn3ccccc3n2)cc1`: the activation is -0.039% (inactive).

As to `COc1ccc(N=Nc2ccc(O)c(P(=O)(c3ccccc3)c3ccccc3)c2)cc1`, the activation was 0.015% (inactive).

Regarding `O=C(N/N=C/c1ccc([N+](=O)[O-])o1)c1cc2ccccc2o1`, the activation is 4.43% (inactive).

As for `O=C(Nc1ccccc1N1CCCCC1)c1cnccn1`, the activation was -0.052% (inactive).

Regarding `Cc1cc2c(NC(=O)Nc3ccc(C(C)(C)C)cc3)cccc2nn1`, the activation is 0.068% (inactive).

Take `O=C(CCN1CCCCC1)NCC[C@@H]1CC[C@H](NC(=O)C2CCCCC2)[C@H](CO)O1`: the activation was 0.052% (inactive).

`CC(=O)Nc1ccc(N2Cc3ccccc3C2)cc1`: the activation is -0.053% (inactive).

On to `O=C(CC1CC1)N1CC(=O)N2[C@@H](CO)[C@H](c3ccc(C#Cc4ccc(F)cc4)cc3)[C@@H]2C1`, for which the activation is -0.031% (inactive).

As for `CN(Cc1cccs1)C(=O)Cc1c[nH]c2ccccc12`, the activation was -0.024% (inactive).

Regarding `CCc1nc(C)cn1S(=O)(=O)c1ccc([N+](=O)[O-])cc1`, the activation is -0.053% (inactive).

As to `COc1ccc(Nc2nc(N)c(C(=O)c3ccc(F)cc3)s2)cc1`, the activation is 0.551% (inactive).

For `CCOC(=O)Cc1csc(NC(=O)Nc2ccc(F)cc2)n1`, the activation is 0.472% (inactive).

For `COc1cccc2cc(C(=O)N(Cc3cccs3)CC3CCCO3)c(=O)oc12` (stereo unspecified), the activation is -0.044% (inactive).

Consider `O=C1C=CC(=O)C(CNc2ccc(C(=O)OCc3ccccc3)cc2)=C1`, for which the activation is -0.05% (inactive).

Consider `CCCNC(=O)N1CC2(CN(S(C)(=O)=O)C2)c2c(n(C)c3cc(OC)ccc23)[C@H]1CO`, for which the activation is 0.016% (inactive).

As for `CN(C)C(=O)C[C@@H]1C=C[C@H](NS(=O)(=O)c2ccccc2)[C@@H](CO)O1`, the activation was 0.689% (inactive).

Turning to `N#CC(C#N)=C1C=CC=CN1/C(=C\c1ccco1)C(=O)c1ccc(Br)cc1`, the activation is 8.49% (inactive).

Consider `CC(C)(C)NC(=O)C(c1c[nH]c2ccccc12)N(C(=O)Cn1nnc(-c2ccc(Cl)cc2)n1)c1ccccc1F` (stereo unspecified), for which the activation was 0.104% (inactive).

Turning to `O=C(NC1=C(NC2CCS(=O)(=O)C2)C(=O)c2ccccc2C1=O)c1ccccc1` (stereo unspecified), the activation was -0.047% (inactive).

For `Cc1ccc(C)c(CSC2=NN3CCCC(=O)N=C3S2)c1`, the activation is -0.017% (inactive).

As to `CC(Sc1nnc(-c2ccncc2)n1C)C(=O)Nc1ccc(N2CCOCC2)cc1` (stereo unspecified), the activation is -0.047% (inactive).

Regarding `CC(C)N1CCc2c(sc(NC(=O)c3cc4cc([N+](=O)[O-])ccc4s3)c2C(N)=O)C1`, the activation was 7.43% (inactive).

Turning to `COc1ccc(C(=O)CN2Cc3ccccc3C2=N)cc1`, the activation is 0.166% (inactive).

Consider `Cc1nn(-c2ccccc2)c(C)c1N`, for which the activation was 0.313% (inactive).

Regarding `O=C(N/N=C\c1c(O)ccc2ccccc12)c1ccc(S(=O)(=O)N2CCCCC2)cc1`, the activation is 12.4% (inactive).

As to `COc1ccc(-c2ccc(C3[C@@H]4CN(S(=O)(=O)c5ccccc5C)C[C@H]3N4)cc2)cc1` (stereo partly specified), the activation is 0% (inactive).

As to `C[C@@H]1CN([C@@H](C)CO)C(=O)c2ccccc2-c2ccccc2CO[C@@H]1CN(C)C(=O)Nc1ccc2c(c1)OCO2`, the activation was 0.081% (inactive).

As for `NNC(=O)c1sc(-c2ccccc2)cc1N`, the activation is 0.249% (inactive).

Take `COCCNC(=S)N(Cc1cccnc1)Cc1ccc(OC)c(OC)c1`: the activation was 0.071% (inactive).

`C[C@@H]1CN([C@@H](C)CO)C(=O)c2cc(NS(C)(=O)=O)ccc2O[C@@H](C)CCCCO[C@@H]1CN(C)Cc1ccccc1`: the activation was 0.016% (inactive).

`O=C(NCCO)/C(=C/c1ccco1)NC(=O)c1ccco1`: the activation is -0.047% (inactive).

Take `NS(=O)(=O)c1cccc(NC(=O)COC(=O)Cc2ccc(S(=O)(=O)N3CCOCC3)s2)c1`: the activation was 0.056% (inactive).

Take `O=C(CSc1nc2ccccc2[nH]1)N/N=C/C=C/c1ccccc1[N+](=O)[O-]`: the activation was 0.165% (inactive).

`COc1cccc(C(=O)c2c(-c3ccccc3)ncc3cc(OC)c(OC)cc23)c1`: the activation is 0.006% (inactive).

`COc1ccccc1CNC(=O)COC(=O)COc1ccccc1F`: the activation was 0.549% (inactive).

Consider `C[C@@H]1CN([C@H](C)CO)C(=O)c2cc(NS(=O)(=O)c3ccc(F)cc3)ccc2O[C@@H](C)CCCCO[C@@H]1CN(C)Cc1ccc2c(c1)OCO2`, for which the activation is 9.16% (inactive).

Regarding `Cc1ccc(NC(=O)COc2ccc(-c3nnco3)cc2)cc1S(=O)(=O)N1CCOCC1`, the activation is -0.044% (inactive).

Consider `N#Cc1ccccc1Cn1cc(/C=N/Nc2ccc([N+](=O)[O-])cn2)c2ccccc21`, for which the activation is 10.9% (inactive).

Regarding `O=C(O)c1ccccc1CSc1nc2ccccc2n1Cc1ccccc1C(=O)O`, the activation was 0.715% (inactive).

Regarding `CC(C)OC(=O)CC(=O)CSc1nc(-c2ccc(F)cc2)cc(-c2ccccc2)c1C#N`, the activation is 0.769% (inactive).

As to `CN(C)c1ccc(NC2=C(Cl)C(=O)c3ccccc3C2=O)cc1`, the activation is -0.053% (inactive).

Regarding `COc1cccc(CNC(=O)c2cc(S(=O)(=O)N3CCOCC3)cn2C)c1`, the activation is 0.576% (inactive).

On to `CCC(C)c1nc2ccsc2c(N2CCOC2=O)c1-c1ccccc1` (stereo unspecified), for which the activation is -0.032% (inactive).

Regarding `COC(=O)Nc1ccc(S(=O)(=O)N2CCCC(C(=O)N3CCN(C)CC3)C2)cc1` (stereo unspecified), the activation was 0.221% (inactive).

Take `COc1ccccc1N=Nc1c(C)[nH]n(-c2ccccc2)c1=O`: the activation was -0.075% (inactive).

For `CCOC(=O)N1CCN(C(=O)Cn2ccc3c(OC)cccc3c2=O)CC1`, the activation is 0.07% (inactive).

On to `O=C(c1ccccc1Cl)N1CCSCCS1(=O)=O`, for which the activation is 0.035% (inactive).

Turning to `O=[N+]([O-])c1ccc(S(=O)(=O)c2ccccc2)nc1`, the activation was -0.024% (inactive).

On to `COc1ccc2c3c([nH]c2c1)[C@@H](CO)N(Cc1cc(F)ccc1F)CC31CCN(C(C)=O)CC1`, for which the activation was -0.023% (inactive).

`Cc1cc(=O)[nH]c(N/N=C/c2cc(C)n(-c3ccccc3)c2C)n1`: the activation is -0.016% (inactive).

On to `CCN(CC)CCCN=Cc1c(O)n(-c2cccc(C)c2)c(=O)c2ccccc12`, for which the activation is -0.005% (inactive).

The test is the same for the next values; noted with them: 68-5-11 mouse fibroblast XiGFP reporter, % GFP-positive imaging, 3 d; at 21 µM (top of the series); cells co-treated with 5-aza-dC sensitizer; scaled: neutral wells 0, ellipticine wells 100.
With `Cc1noc(C)c1NC(=O)N(C)C[C@@H]1Oc2ccc(NC(=O)C3CC3)cc2CC(=O)N([C@@H](C)CO)C[C@@H]1C`, the activation was -0.023% (inactive).
